Consider one compound from publication PMC5949348, “The Metabolism of Separase Inhibitor Sepin-1 in Human, Mouse, and Rat Liver Microsomes” (Frontiers in Pharmacology, 2018).

Several values for one entry are separate records, joined by “and”; a condition that tells them apart may be missing. Equal values may be shown once. Read-outs that look alike come from different tables or passages of the source. Bounds are passed on as bounds.

One series relates to separase. Further details: method as in Zhang et al., 2014. Conditions: ref Zhang et al., 2014; cited from earlier work.
Another series addresses T1, CYP1A2 (Homo sapiens, UniProt P05177).
T1 construct: purchased XenoTech
T1 sequence (P05177 1-516): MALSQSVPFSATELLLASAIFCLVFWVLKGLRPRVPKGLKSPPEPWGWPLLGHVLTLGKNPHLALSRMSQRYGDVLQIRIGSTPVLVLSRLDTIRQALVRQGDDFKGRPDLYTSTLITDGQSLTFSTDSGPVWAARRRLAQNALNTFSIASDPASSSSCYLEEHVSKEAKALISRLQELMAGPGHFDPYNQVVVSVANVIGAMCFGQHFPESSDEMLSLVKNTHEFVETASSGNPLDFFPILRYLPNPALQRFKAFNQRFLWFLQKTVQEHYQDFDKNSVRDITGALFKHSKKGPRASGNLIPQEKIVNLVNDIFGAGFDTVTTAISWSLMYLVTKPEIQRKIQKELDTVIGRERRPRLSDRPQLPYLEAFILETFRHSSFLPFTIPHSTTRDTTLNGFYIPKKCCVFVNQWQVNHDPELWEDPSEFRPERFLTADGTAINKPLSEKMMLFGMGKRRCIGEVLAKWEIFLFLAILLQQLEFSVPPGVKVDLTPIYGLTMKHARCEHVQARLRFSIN
Description: Inhibition of sepin-1 on CYP1A2. The format is in vitro ADME. As for the experimental part: (§1) Incubations were performed in 1× PBS (pH 7.4), containing 0, 0.156, 0.312, 0.625, 1.25, 2.5, 5, 10, 20, or 40 μM sepin-1, 2 pmol of each cDNA-expressed P450 enzymes, and corresponding substrates: CYP1A2 (phenacetin, 40 μM, 20 min incubation), 2B6 (efavirenz, 20 μM, 30 min), 2C8 (paclitaxel, 10 μM, 30 min), 2C9 (diclofenac, 5 μM, 15 min), 2C19 [(S)-mephenytoin, 40 μM, 20 min], 2D6 (dextromethorphan, 5 μM, 15 min), and CYP3A4 (midazolam, 3 μM, 10 min) in a final volume of 190 μl. After 5 min of pre-incubation at 37°C, the reaction was initiated by adding 10 μl of 20 mM NADPH (final concentration 1.0 mM) and continued for a specific time as presented above with gentle shaking. Incubations without sepin-1 were used as controls. Reactions were terminated by the addition of 200 μl of ice-cold methanol, vortexing for 30 s, and centrifuging at 15,000 × g for 15 min. Each supernatant was transferred to an auto sampler vial and 5.0 μl was injected on to UHPLC coupled with a QQQMS system for the specific metabolite analysis. A MRM method was used. Incubations were conducted in duplicate. Positive controls were performed by using a known specific inhibitor for each of the isoform assays (Supplementary Table S1). […]

In the next series the target is T2, CYP2D6 (Homo sapiens, UniProt P10635).
T2 construct: purchased XenoTech
T2 sequence (P10635 whole entry): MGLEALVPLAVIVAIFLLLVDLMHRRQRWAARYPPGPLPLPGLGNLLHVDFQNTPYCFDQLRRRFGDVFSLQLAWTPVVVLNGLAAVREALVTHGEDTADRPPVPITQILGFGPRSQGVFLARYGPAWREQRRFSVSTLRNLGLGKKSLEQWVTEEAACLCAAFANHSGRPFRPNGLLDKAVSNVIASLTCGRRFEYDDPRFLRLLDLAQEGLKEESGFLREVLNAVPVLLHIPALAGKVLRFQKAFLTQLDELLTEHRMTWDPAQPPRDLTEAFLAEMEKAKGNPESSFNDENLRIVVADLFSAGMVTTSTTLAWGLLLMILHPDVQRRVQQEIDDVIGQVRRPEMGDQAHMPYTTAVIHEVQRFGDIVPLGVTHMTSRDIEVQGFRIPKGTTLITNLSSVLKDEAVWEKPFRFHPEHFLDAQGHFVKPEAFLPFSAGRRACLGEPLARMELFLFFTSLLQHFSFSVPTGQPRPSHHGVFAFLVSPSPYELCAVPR
The series is described as follows: Inhibition of sepin-1 on CYP2D6. The format is in vitro ADME. The protocol:
as §1

Series [1] has as its system cancer cell lines including breast cancer, leukemia, and neuroblastoma. Also noted: method as in Zhang et al., 2014. The note with it: ref Zhang et al., 2014; cited from earlier work.
A further series concerns breast cancer xenografts. Also noted: method as in Zhang et al., 2014. Conditions: mice; ref Zhang et al., 2014; cited from earlier work.
Series [2] in a line: Metabolism of sepin-1 in human liver microsomes. The format is in vitro ADME. Conditions: 30 μM sepin-1, NADPH 1.0 mM, 30 min. As for the experimental part:
Incubations were conducted in 1× phosphate-buffered saline (1× PBS, pH 7.4), containing 30 μM sepin-1, 1.0 mg HLM, MLM, RLM, or 2 pmol of each cDNA-expressed P450 enzyme (control, CYP1A2, 2A6, 2B6, 2C8, 2C9, 2C19, 2D6, 2E1, and CYP3A4) in a final volume of 190 μl. After 5 min of pre-incubation at 37°C, the reaction was initiated by adding 10 μl of 20 mM NADPH (final concentration 1.0 mM) and continued for 30 min, with shaking at 37°C. Incubations lacking NADPH served as controls. Reactions were terminated with 200 μl of ice-cold methanol, followed by vortexing for 30 s and centrifuging at 15,000 × g for 15 min. Each supernatant was transferred to an auto sampler vial, and 5.0 μl was injected on to UHPLC coupled with a QTOFMS system for metabolite analysis. Incubations were conducted in quadruplicate for HLM, in triplicate for MLM and RLM, and in duplicate for cDNA-expressed P450 enzymes.
The separation of sepin-1 and its metabolites was achieved using a 1260 Infinity Binary LC System (Agilent Technologies, Santa Clara, CA, United States) equipped with 100 mm × 2.1 mm (Agilent XDB C18) column. The column temperature was maintained at 40°C. The flow rate was 0.3 ml/min, with a gradient ranging from 2% to 98% aqueous acetonitrile containing 0.1% formic acid in a 15-min run. QTOFMS was operated in a positive mode with electrospray ionization. Ultra-high pure nitrogen was applied as the drying gas (12 l/min) and the collision gas. The drying gas temperature was set at 325°C, and the nebulizer pressure was kept at 35 psi. The capillary voltages were set at 3.5 kV. […]
Mass chromatograms and mass spectra were acquired by MassHunter Workstation Data Acquisition Software (Agilent, Santa Clara, CA, United States) in centroid and profile formats from m/z 100 to 1000. […] For the QQQMS data, QQQ Quantitative Analysis Software (Agilent, Santa Clara, CA, United States) was used for metabolite analysis. […] Statistical differences between two groups were determined by Student’s t-test.
For orientation: Liver microsomes are vesicles of endoplasmic reticulum, rich in cytochrome P450 enzymes.

As to `CC1(C)[N+]([O-])=c2ccc([N+](=O)[O-])cc2=[N+]1[O-]` [Sepin-1, 2,2-dimethyl-5-nitro-2H-benzimidazole-1,3-dioxide], the “Inhibition of separase activity (mode)” value in the series with separase is “inhibits separase activity in a non-competitive way”. In addition, the IC50 is 1 to 10 µM on CYP1A2 (FDA classification bands, read-out: Inhibition potency class on CYP1A2); < 10 µM and 8.1 µM on CYP1A2 (substrate phenacetin 40 μM, 20 min, metabolite acetaminophen, co-incubation, read-out: IC50 on CYP1A2); > 10 µM and 42.5 µM on CYP2D6 (substrate dextromethorphan 5 μM, 15 min, O-demethylation, co-incubation). The “Inhibition potency class on CYP2D6” value on CYP2D6 (FDA classification bands) is reported as “weak inhibition”. Also, in series [1], the “Inhibition of cancer cell line growth” value is recorded as “selectively inhibits the growth of cancer cell lines”. For the same compound, in the series with breast cancer xenografts, the “Inhibition of breast cancer xenograft growth” value is “inhibits the growth of breast cancer xenografts in mice”. Besides, in series [2], the “Metabolism of parent in HLM (in words)” value was “metabolized rapidly”.
